Results published in US12109266B2, “Modulating gabarap to modulate immunogenic cell death” (Dana-Farber Cancer Institute, Inc., priority 2020, dated 2024).
“Also recorded” adds a separate entry of the source.

Key:
5TGM1 cells = assay: Ex vivo IFN-gamma ELISPOT on splenocytes; type: in vivo, mouse; settings: splenocytes of BTZ-treated, rechallenged mice
Description: 5×10^5 5TGM1 WT or calrKO were treated with BTZ (7.5 nM) in vitro for 16 h. C57BL/KaLwRijHsd mice (n=8 per group) were then either vaccinated in the left flank with dying 5TGM1 WT, 5TGM1calrKO, 5TGM1 gabarapKO or not vaccinated. After 1 week, 1×10^6 WT 5TGM1 cells were injected in the contralateral flank and tumor growth was monitored over time. In a parallel experiment under the same conditions, spleens from mice were harvested 10 days after rechallenge and ELISPOT assay was performed to assess T cell specific reactivity against MM cells (Translational Immunogenomics Laboratory, DFCI).
C57BL/KaLwRijHsd mice bearing 5TGM1 WT tumors were treated with BTZ as above. 2 weeks after observation of tumor regression, treated (n=5) as well as naïve mice (n=5), were rechallenged with viable 1×10^6 5TGM1 WT cells, and tumor growth was monitored over time. In a parallel experiment, spleens were harvested 2 weeks after tumor rechallenge from both groups to test T cell specific reactivity against multiple myeloma cell by ELISPOT assay (Translational Immunogenomics Laboratory, DFCI).

naive T cells = assay: Analysis of naive T cell proliferation; type: cell-based, human; settings: 5 day co-culture with BTZ-treated AMO1 or NCI-H929 cells and DCs
Description: DCs were generated from healthy donors PBMCs as described above (“Generation of Mo-DCs” section). Naïve T cells were negatively selected from CD14-PBMCs from the same donors using the Naive Pan T Cell Isolation Kit (Miltenyi Biotec) and frozen. When DCs were generated, either untreated or BTZ-treated multiple myeloma cells were co-cultured with DCs and naïve T cells labeled with CellTrace™ Violet Cell Proliferation Kit (ThermoFisher Scientific) for 5 days. Naïve T cells were also cultured in the absence of multiple myeloma cells and in the presence of phytohemagglutinin (PHA) (20 ug/ml) as positive control. Before analysis, cells were stained with: CD8-FITC (#344704), CD4-PerCP/Cyanine5.5 (#317428) (BioLegend); and LIVE/DEAD™ Fixable Aqua dead Cell Stain (#L34966) (ThermoFisher Scientific). Proliferating CD4 and CD8 T cell subsets were then analyzed using the FlowJo software (Becton, Dickinson & Company).

[1] = test system: UPR transducer PERK pathway; assay: Western blot of UPR/PERK pathway; type: cell-based; settings: AMO1 and 5TGM1 cells
Description: Cell lysis was performed in RIPA buffer (Boston Bio Products) supplemented with Halt™ protease and phosphatase inhibitor cocktail (Thermo Fisher Scientific). Immunoblot analysis was performed to evaluate expression levels of total protein and phospho-specific isoforms. SDS-PAGE was performed on NuPage™ Bis-Tris gels (ThermoFisher Scientific) using MOPS or MES running buffer. Gels were dry transferred onto 0.45 μm nitrocellulose membranes using the iBlot® Dry Blotting System (ThermoFisher Scientific). The following antibodies (Abs) were used and purchased from Cell Signaling Technology: CRT (Cat. #12238) and GABARAP (Cat. #13733). GAPDH (Cat. #2118) was used as loading controls.
Cell lysis was performed in RIPA buffer (Boston Bio Products) supplemented with Halt protease and phosphatase inhibitor cocktail (ThermoFisher Scientific). SDS-PAGE was performed on NuPage Bis-Tris gels (ThermoFisher Scientific) using MOPS or MES running buffer. Gels were dry transferred onto 0.45 μm nitrocellulose membranes using the iBlot® Dry Blotting System (ThermoFisher Scientific). The following Abs were purchased from Cell Signaling Technology: EIF2A (#5324), p-EIF2A (#3398), ATF4 (#11815), CHOP (2895), CALR (#12238), cGAS (#15102), TBK1 (#3504), pTBK1 (#5483), pIRF3 (#29047), STING (#13647). GAPDH (#2118) and B-ACTIN (#4970) were used as loading controls.

U266 cells = assay: Cytotoxicity assay (T cell lysis of MM cells); type: cell-based, human; settings: T cells from BTZ co-culture, 24 h
Description: After coculture of HLA-matched DCs and T cells from healthy donors with either untreated or BTZ-treated U266 cells for 5 days, T cells were negatively selected using the Pan T cell Isolation Kit (Miltenyi Biotec) and plated in round bottom 96-well plates with naïve U266 cells pre-stained with CFSE dye (ThermoFisher Scientific) at different target:effector (T:E) ratios for 24 h in the presence of IL-2 (#130-097-74, Miltenyi Biotec). Then cells were 7AAD-stained, and detection of viable CFSE-gated cells was performed using BD LRSFortessa X-20 cytometer.

[2] = test system: AMO1 and NCI-H929 MM cells; assay: Micronuclei assay (flow cytometry); type: cell-based, human; settings: AMO1 (0-7.5 nM) and NCI-H929 (0-5 nM), 16 h
Description: Cells were analyzed for micronuclei formation using a flow cytometry-based Micronucleus Assay (MicroFlow kit), according to manufacturer's protocol. Briefly, nonviable cells were removed by Ficoll gradient centrifugation. Viable cells were then stained with photoactivated Nucleic Acid Dye A (ethidium monoazide) that crosses the compromised outer membrane of apoptotic and necrotic cells and stains them red. Cells were then washed twice and lysed with a detergent containing buffer to break open cytoplasmic membranes and release nuclei and micronuclei. Nucleic Acid Dye B (SYTOX green) is then added to label DNA from both nuclei and micronuclei. Flow cytometry analysis was used to distinguish DNA from dead (dual stained with Dye A and B) and live (single stained with Dye B) cells.

## CC(C)C[C@H](NC(=O)[C@H](Cc1ccccc1)NC(=O)c1cnccn1)B(O)O [BTZ, bortezomib]
5TGM1 cells
  T cell reactivity against MM cells (IFN-gamma ELISPOT): robust immune response against multiple myeloma cells; also recorded: generates a robust immune response against MM cells
Naive T cells
  proliferation of CD4+ and CD8+ naive T cells: increased proliferation of both CD4+ and CD8+ naïve T cells; also recorded: promotes proliferation of CD4+ and CD8+ naïve T cells
[1]
  PERK pathway activation (p-eIF2-alpha, CHOP, ATF4): activated the UPR transducer PERK pathway
U266 cells
  lysis of MM cells by T cells isolated after co-culture: able to efficiently induce lysis of multiple myeloma cells
[2]
  micronuclei (DNA content in the cytoplasm): dose-dependent increase of DNA content in the cytoplasm
